Measurements from patent US11266642B2, “Small molecule inhibitors of HLA-DR3 binding for treating autoimmune thyroiditis” (ICAHN SCHOOL OF MEDICINE AT MOUNT SINAI, priority 2015, dated 2022).

Experiments:
[1] = tested on: T-cells of hTg immunized mice; experiment: CFSE T-cell proliferation of splenocytes from hTg immunized NOD-DR3 mice, compound added ex vivo; assay type: cell-based, mouse; conditions: final concentration 0.001 mM
Method: Female NOD-DR3 mice, 4-6 weeks old, were injected subcutaneously with human thyroglobulin (hTg) (Cell Sciences, Canton, Mass.) in complete Freund adjuvant (CFA) (Sigma) to induce EAT. Mice were immunized with hTg on day 0 and boosted on day 7; mice were sacrificed on day 21. For some mice, PC61 (anti-CD25) antibody (ATCC) at 7.5 mg/mL was injected i.p. on day (−4) and day 3 to deplete T regulatory (CD25+) cells and augment the autoimmune response to hTg.
Spleen and draining lymph nodes were collected from mice upon sacrifice. The spleens and draining lymph nodes were harvested in complete RPMI (Corning) supplemented with 10% FBS (Sigma-Aldrich,) and 1 mM sodium pyruvate (Sigma-Aldrich). They were cut and pressed in circular motion using a plunger from a 10 mL syringe. The suspension was filtered through a 100 μm cell strainer twice and centrifuged at 200×g for 10 minutes. The supernatant was discarded. […] The pellet was resuspended in RPMI and the cells were counted and plated. […]
The CFSE-labeled cells were plated at 2×10^5 cells per well in 100 μL of medium (RPMI/10% FBS). […] The results were analyzed using Flowjo (Tree Star, Ashland, Oreg.). The stimulation index was calculated by using the following formula: Stimulation index=[% proliferating lymphocytes (hTg, peptide or mitogen-treated)]/[% proliferating lymphocytes (medium-treated)]. […]

[2] = tested on: T-cell proliferative responses to hTg; experiment: In vivo IP administration in hTg-immunized NOD-DR3 mice (EAT), T-cell proliferation CFSE assay; parameters: species or system mouse; conditions: IP 125 μg on days -2, -1, 5, 6; sacrifice day 21; vehicle 2.3 ± 0.5; p=0.0432
Text: Mice transgenic for DRB1*0301 were originally generated by G. J Hämmerling and co-workers as previously described [Strauss et al. Immunogenetics 40, 104-108 (1994)]. Briefly, the DR3 (DRA1*0101/DRB1*0301) transgenes were inserted into (C57BL/6×DBA/2) F1 embryos and the progeny were back-crossed to B10.Q mice. The DR3 mice were crossed with I-Aβ knockouts (C57BL/6×129) to obtain mice lacking murine MHC class II and expressing human DR3. The transgenic mouse line was maintained by intercrossing. The background non-MHC genes in the DR3 transgenic line was 50% C57BL/10 genes and 50% contribution from CBA, C57BL/6, and 129 genes. These mice were then back-crossed into NOD background to produce the NOD-DR3 mice [Flynn et al. J Autoimmun, 17, 7-15 (2001)]. The transgene was confirmed to be HLA-DRβ1-Arg74 positive. […]
Seven female NOD-DR3 mice (6-10 weeks old) were injected IP with […] Compound Ia on day (−2) and day (−1), followed by SQ immunization of human thyroglobulin (hTg) mixed with CFA on day 0. […] The stimulation index was calculated by using the formula described above: Stimulation index=[% proliferating lymphocytes (hTg, peptide or mitogen-treated)]/[% proliferating lymphocytes (medium-treated)].

HLA-DR2 = experiment: MBP87-99 binding to DR2 expressing cells, flow cytometry (specificity control); assay type: cell-based, human; conditions: biotinylated MBP87-99, 24 hours

## COc1ccc2cc1Oc1ccc(cc1)C[C@H]1c3c(cc4c(c3Oc3cc5c(cc3OC)CCN(C)[C@@H]5C2)OCO4)CCN1C [Compound Ia, cepharanthine]
[1]; Tg.2098 20 μg/ml, p=0.0079
  activation of T-cells of hTg immunized mice by Tg.2098: significantly blocked
[1]; hTg 40 μg/mL, p=0.0005
  activation of T-cells of hTg immunized mice by hTg: significantly blocked
[2]
  Stimulation index, T-cell stimulation in response to hTg: 1.3 ± 0.2
HLA-DR2
  block of MBP87-99 binding to DR2: did not block
